2 molecules from patent publication US7214505B1, “Cell-based assay for the detection of toxic analytes” (priority 1999, dated 2007) can be followed below.

In data set [1] the test system is Vibrio fischeri. Description: Microtox test with bacteria immobilized on silica gel (bacteria/silica mixture). The format is cell-based. Conditions: FIGS. 3, 4 & 5; silica gel. As to the method:
For initial testing of such a bacteria/silica mixture, rehydration of freeze-dried luminescent Vibrio fischeri Microtox® reagent is carried out as before, and 4 aliquots are taken. One aliquot of the resultant suspension is mixed with 0.5 g of silica gel, although the amount of silica gel can be varied. After the bacteria are adsorbed onto the silica gel, the resultant mixture is used as the bioluminescent reagent in toxicity assays. Two of the other aliquots are used as controls (with and without silica gel), and the third is tested with toxicant alone.

The subject of data set [2] is Vibrio fischeri. Description: Modified Microtox test, toxicant adsorbed onto silica gel then added to bacterial suspension. Particulars: FIGS. 1 and 2, 30 minutes incubation.
Protocol: Briefly the Microtox® tests used for this study first involve rehydration of freeze-dried luminescent Vibrio fischeri bacteria, i.e. the Microtox® reagent.
The reconstituted bacterial suspension is added to a series dilution of sample in 2% NaCl and incubated for 15° C. for 0.5–15 minutes. The dilutions can be modified to give any desired concentration of sample, and the volume of reagent used per test can also be varied.
After incubation, bioluminescence is measured in a suitable photometer, such as a Deltatox® photometer or that in the Microtox® Model 500 Analyzer.
Data is recorded in terms of decrease luminescence over time.
Generally, these tests are carried out in the presence of an adsorbent which is referred to as using a modified Microtox® test.
In one embodiment of the invention, the solid-phase adsorbent is added to samples of toxicants and left for 30 minutes at ambient temperature. The amount of solid adsorbent and the concentrations of toxicant used are varied.
During this time, rehydration of the freeze-dried Microtox® bacteria as an aqueous suspension is performed, and it is left to stabilize at 15° C. for 15 minutes. […]
At the same time, a control sample of bacteria is monitored for comparison. […]
After 30 minutes of incubation, the bioluminescence is measured using a photometer, and data is recorded in terms of decrease of luminescence over time.
Data set [3] concerns Vibrio fischeri. Description: Toxicity assay with freeze-dried (stabilized) silica-based bacterial reagent vs standard Microtox reagent. The format is cell-based. Conditions: 10 ppm malathion; FIG. 5. On the procedure:
Stabilization of the bacteria used in the standard Microtox® test is performed by freeze-drying, and the effects of stabilization on such a bacteria-silica mixture were also investigated. A bacteria-silica mixture at a specific bacteria to silica ratio is subjected to freeze-drying at −30° C. for 6 hours under a vacuum, i.e. 0.1 hPa. Thereafter, the temperature is ramped up to +15° C. at increments of 10° C. per 15 minutes, retaining the vacuum, and then held at +15° C. for 8 hours.
Tests are then run to compare this freeze-dried mixture with the standard Microtox® freeze-dried reagent.

With `Oc1ccccc1` [phenol], the “toxic effect of aqueous toxicant on bioluminescence with bacteria immobilized by adsorption onto a solid surface, compared to free bacteria” value in data set [1] is “enhanced”. For the same molecule, the “toxicity effect (effect on luminescence) when toxicant is adsorbed onto a solid surface, compared to aqueous toxicant” value in data set [2] is reported as “increased”.

With `CCOC(=O)CC(SP(=S)(OC)OC)C(=O)OCC` (centres unmarked) [malathion], in data set [1], the “toxic effect of aqueous toxicant on bioluminescence with bacteria immobilized by adsorption onto a solid surface, compared to free bacteria” value is “enhanced”. Further, the “% toxic effect with stabilized silica-based reagent compared to standard Microtox reagent” value in data set [3] is given as “increased”. Further, in data set [2], the “toxicity effect (effect on luminescence) when toxicant is adsorbed onto a solid surface, compared to aqueous toxicant” value is “increased”.
